Data reported in ChEMBL document CHEMBL1157033, “Developing a complete pharmacology for AMPA receptors: a perspective on subtype-selective ligands” (Bioorg Med Chem, 2010).

Key:
Glutamate receptor 1 [1] = biological target: T1, Glutamate receptor 1 (Homo sapiens, UniProt P42261); assay: Activity at recombinant GluA1 receptor flip isoform expressed in Xenopus oocytes assessed as potentiation of glutamate-induced current at 100 uM relative to control; type: cell-based; conditions: Oocyte
Glutamate receptor 1 [2] = biological target: T1, Glutamate receptor 1; assay: Agonist activity at recombinant GluA1 receptor flip isoform expressed in Xenopus oocytes; type: functional, cell-based, Oocyte
Glutamate receptor 1 [3] = biological target: T1, Glutamate receptor 1; assay: Activity at recombinant GluA1 receptor flop isoform expressed in Xenopus oocytes assessed as potentiation of glutamate-induced current at 100 uM relative to control; type: cell-based; conditions: Oocyte
Glutamate receptor 3 [4] = biological target: T2, Glutamate receptor 3 (Homo sapiens, UniProt P42263); assay: Activity at recombinant GluA3 receptor flip isoform expressed in Xenopus oocytes assessed as potentiation of glutamate-induced current at 100 uM relative to control; type: cell-based; conditions: Oocyte
[5] = biological target: T3, Glutamate receptor AMPA 1/2 (Homo sapiens) (UniProt P42262+P42261); assay: Activity at recombinant GluA1A2 receptor flip isoform expressed in Xenopus oocytes assessed as potentiation of glutamate-induced current at 100 uM relative to control; type: cell-based; conditions: Oocyte
[6] = biological target: T3, Glutamate receptor AMPA 1/2 (Homo sapiens); assay: Activity at recombinant GluA1A2 receptor flop isoform expressed in Xenopus oocytes assessed as potentiation of glutamate-induced current at 100 uM relative to control; type: cell-based; conditions: Oocyte
[7] = Activity at recombinant GluA4 receptor flip isoform expressed in Xenopus oocytes assessed as effect on 300 uM glutamate-induced current; type: cell-based; conditions: Oocyte
[8] = biological target: T4, Glutamate receptor AMPA 1/2 (Homo sapiens, UniProt P42261+P42262); assay: Activity at recombinant GluA1A2 receptor flip isoform expressed in Xenopus oocytes assessed as effect on 300 uM glutamate-induced current; type: cell-based, Oocyte
[9] = biological target: T4, Glutamate receptor AMPA 1/2; assay: Activity at recombinant GluA1A2 receptor flop isoform expressed in Xenopus oocytes assessed as effect on 300 uM glutamate-induced current; type: cell-based, Oocyte
[10] = Activity at recombinant GluA2A4 receptor flip isoform expressed in Xenopus oocytes assessed as effect on 300 uM glutamate-induced current; type: cell-based; conditions: Oocyte
[11] = Activity at recombinant GluA2A4 receptor flop isoform expressed in Xenopus oocytes assessed as effect on 300 uM glutamate-induced current; type: cell-based; conditions: Oocyte
Glutamate receptor 1 [12] = biological target: T1, Glutamate receptor 1; assay: Activity at human recombinant GluA1 receptor flip isoform expressed in HEK293 cells assessed as effect on glutamate-induced calcium flux by Fluo-4/AM staining-based fluorescence assay; type: cell-based
Glutamate receptor 2 [13] = biological target: T5, Glutamate receptor 2 (Homo sapiens, UniProt P42262); assay: Activity at human recombinant GluA2 receptor flip isoform expressed in HEK293 cells assessed as effect on glutamate-induced calcium flux by Fluo-4/AM staining-based fluorescence assay; type: cell-based
Glutamate receptor 2 [14] = biological target: T5, Glutamate receptor 2; assay: Activity at human recombinant GluA2 receptor flop isoform expressed in HEK293 cells assessed as effect on glutamate-induced calcium flux by Fluo-4/AM staining-based fluorescence assay; type: cell-based
Glutamate receptor 3 [15] = biological target: T2, Glutamate receptor 3; assay: Activity at human recombinant GluA3 receptor flip isoform expressed in HEK293 cells assessed as effect on glutamate-induced calcium flux by Fluo-4/AM staining-based fluorescence assay; type: cell-based
[16] = Activity at human recombinant GluA4 receptor flip isoform expressed in HEK293 cells assessed as effect on glutamate-induced calcium flux by Fluo-4/AM staining-based fluorescence assay; type: cell-based
Glutamate receptor 1 [17] = biological target: T1, Glutamate receptor 1; assay: Activity at recombinant GluA1 receptor flip isoform expressed in Xenopus oocytes co-expressing gamma2-TARP assessed as effect on 10 uM glutamate-induced current by voltage-clamp electrophysiological assay; type: cell-based, Oocyte
Glutamate receptor 1 [18] = biological target: T1, Glutamate receptor 1; assay: Activity at recombinant GluA1 receptor flop isoform expressed in Xenopus oocytes co-expressing gamma2-TARP assessed as effect on 10 uM glutamate-induced current by voltage-clamp electrophysiological assay; type: cell-based, Oocyte
Glutamate receptor 1 [19] = biological target: T1, Glutamate receptor 1; assay: Activity at recombinant GluA1 receptor flip isoform expressed in Xenopus oocytes assessed as potentiation of 10 uM AMPA-induced current at 100 uM relative to control; type: cell-based; conditions: Oocyte
Glutamate receptor 1 [20] = biological target: T1, Glutamate receptor 1; assay: Activity at recombinant GluA1 receptor flop isoform expressed in Xenopus oocytes assessed as potentiation of 10 uM AMPA-induced current at 100 uM relative to control; type: cell-based; conditions: Oocyte
Glutamate receptor 3 [21] = biological target: T2, Glutamate receptor 3; assay: Activity at recombinant GluA3 receptor flip isoform expressed in Xenopus oocytes assessed as potentiation of 10 uM AMPA-induced current at 100 uM relative to control; type: cell-based; conditions: Oocyte
Glutamate receptor 3 [22] = biological target: T2, Glutamate receptor 3; assay: Activity at recombinant GluA3 receptor flop isoform expressed in Xenopus oocytes assessed as potentiation of 10 uM AMPA-induced current at 100 uM relative to control; type: cell-based; conditions: Oocyte
[23] = biological target: T3, Glutamate receptor AMPA 1/2 (Homo sapiens); assay: Activity at recombinant GluA1A2 receptor flop isoform expressed in Xenopus oocytes assessed as potentiation of 10 uM AMPA-induced current at 100 uM relative to control; type: cell-based; conditions: Oocyte
[24] = biological target: T6, Glutamate receptor AMPA 2/3 (Homo sapiens) (UniProt P42263+P42262); assay: Activity at recombinant GluA2A3 receptor flop isoform expressed in Xenopus oocytes assessed as potentiation of 10 uM AMPA-induced current at 100 uM relative to control; type: cell-based; conditions: Oocyte
[25] = biological target: T3, Glutamate receptor AMPA 1/2 (Homo sapiens); assay: Activity at recombinant GluA1 receptor flip/GluA2 receptor flop isoform expressed in Xenopus oocytes assessed as potentiation of 10 uM AMPA-induced current at 100 uM relative to control; type: cell-based; conditions: Oocyte
[26] = biological target: T3, Glutamate receptor AMPA 1/2 (Homo sapiens); assay: Activity at recombinant GluA1 receptor flop/GluA2 receptor flip isoform expressed in Xenopus oocytes assessed as potentiation of 10 uM AMPA-induced current at 100 uM relative to control; type: cell-based; conditions: Oocyte
[27] = biological target: T6, Glutamate receptor AMPA 2/3 (Homo sapiens); assay: Activity at recombinant GluA2 receptor flop/GluA3 receptor flip isoform expressed in Xenopus oocytes assessed as potentiation of 10 uM AMPA-induced current at 100 uM relative to control; type: cell-based; conditions: Oocyte
[28] = biological target: T6, Glutamate receptor AMPA 2/3 (Homo sapiens); assay: Activity at recombinant GluA2 receptor flip/GluA3 receptor flop isoform expressed in Xenopus oocytes assessed as potentiation of 10 uM AMPA-induced current at 100 uM relative to control; type: cell-based; conditions: Oocyte
[29] = biological target: Glutamate receptor 4 (Rattus norvegicus) (UniProt P19493); assay: Activity at recombinant GluA4 receptor flip isoform expressed in Xenopus oocytes assessed as potentiation of glutamate-induced current at 100 uM relative to control; conditions: Oocyte
Glutamate receptor 1 [30] = biological target: T1, Glutamate receptor 1; assay: Activity at recombinant GluA1 receptor flip isoform expressed in Xenopus oocytes co-expressing gamma2-TARP assessed as effect on glutamate/trichloromethiazide-induced current; type: cell-based, Oocyte
Glutamate receptor 2 [31] = biological target: T5, Glutamate receptor 2; assay: Activity at recombinant GluA2 receptor flip isoform expressed in Xenopus oocytes co-expressing gamma2-TARP assessed as effect on glutamate/trichloromethiazide-induced current; type: cell-based, Oocyte
Glutamate receptor 1 [32] = biological target: T1, Glutamate receptor 1; type: cell-based, Oocyte
Glutamate receptor 3 [33] = biological target: T2, Glutamate receptor 3; assay: Inhibition of recombinant GluA3 receptor flop isoform expressed in Xenopus oocytes assessed as inhibition of […] uM kainate-induced current by patch clamp electrophysiological assay; type: cell-based, Oocyte
Glutamate receptor 3 [34] = biological target: T2, Glutamate receptor 3; conditions: Oocyte; at 0.5 µM
Oocyte = conditions: at 0.5 µM

T2 sequence (P42263 whole entry, canonical isoform): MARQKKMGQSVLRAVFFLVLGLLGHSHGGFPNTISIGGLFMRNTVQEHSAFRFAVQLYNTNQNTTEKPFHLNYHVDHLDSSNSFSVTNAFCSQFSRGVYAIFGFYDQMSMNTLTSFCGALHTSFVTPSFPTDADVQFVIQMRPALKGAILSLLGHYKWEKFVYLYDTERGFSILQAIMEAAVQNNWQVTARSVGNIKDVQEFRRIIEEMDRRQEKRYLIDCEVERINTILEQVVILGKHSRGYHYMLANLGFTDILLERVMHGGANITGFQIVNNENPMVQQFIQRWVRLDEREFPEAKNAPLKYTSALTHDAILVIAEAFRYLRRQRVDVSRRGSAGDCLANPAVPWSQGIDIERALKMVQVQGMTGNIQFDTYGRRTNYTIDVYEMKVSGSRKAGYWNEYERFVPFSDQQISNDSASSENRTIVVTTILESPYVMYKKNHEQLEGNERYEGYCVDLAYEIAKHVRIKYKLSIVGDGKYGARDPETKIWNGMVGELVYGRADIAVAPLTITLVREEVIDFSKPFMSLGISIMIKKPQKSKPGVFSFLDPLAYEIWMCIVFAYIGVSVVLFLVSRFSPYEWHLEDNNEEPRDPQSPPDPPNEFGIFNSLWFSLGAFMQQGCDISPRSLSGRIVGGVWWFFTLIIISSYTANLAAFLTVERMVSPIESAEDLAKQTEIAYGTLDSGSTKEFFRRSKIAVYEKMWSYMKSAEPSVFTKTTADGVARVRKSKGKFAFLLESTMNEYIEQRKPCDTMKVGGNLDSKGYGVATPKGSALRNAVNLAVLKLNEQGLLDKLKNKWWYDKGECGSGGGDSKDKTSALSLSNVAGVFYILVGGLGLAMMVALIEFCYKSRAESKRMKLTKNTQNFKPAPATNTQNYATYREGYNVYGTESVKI
T1 sequence (P42261 whole entry, canonical isoform): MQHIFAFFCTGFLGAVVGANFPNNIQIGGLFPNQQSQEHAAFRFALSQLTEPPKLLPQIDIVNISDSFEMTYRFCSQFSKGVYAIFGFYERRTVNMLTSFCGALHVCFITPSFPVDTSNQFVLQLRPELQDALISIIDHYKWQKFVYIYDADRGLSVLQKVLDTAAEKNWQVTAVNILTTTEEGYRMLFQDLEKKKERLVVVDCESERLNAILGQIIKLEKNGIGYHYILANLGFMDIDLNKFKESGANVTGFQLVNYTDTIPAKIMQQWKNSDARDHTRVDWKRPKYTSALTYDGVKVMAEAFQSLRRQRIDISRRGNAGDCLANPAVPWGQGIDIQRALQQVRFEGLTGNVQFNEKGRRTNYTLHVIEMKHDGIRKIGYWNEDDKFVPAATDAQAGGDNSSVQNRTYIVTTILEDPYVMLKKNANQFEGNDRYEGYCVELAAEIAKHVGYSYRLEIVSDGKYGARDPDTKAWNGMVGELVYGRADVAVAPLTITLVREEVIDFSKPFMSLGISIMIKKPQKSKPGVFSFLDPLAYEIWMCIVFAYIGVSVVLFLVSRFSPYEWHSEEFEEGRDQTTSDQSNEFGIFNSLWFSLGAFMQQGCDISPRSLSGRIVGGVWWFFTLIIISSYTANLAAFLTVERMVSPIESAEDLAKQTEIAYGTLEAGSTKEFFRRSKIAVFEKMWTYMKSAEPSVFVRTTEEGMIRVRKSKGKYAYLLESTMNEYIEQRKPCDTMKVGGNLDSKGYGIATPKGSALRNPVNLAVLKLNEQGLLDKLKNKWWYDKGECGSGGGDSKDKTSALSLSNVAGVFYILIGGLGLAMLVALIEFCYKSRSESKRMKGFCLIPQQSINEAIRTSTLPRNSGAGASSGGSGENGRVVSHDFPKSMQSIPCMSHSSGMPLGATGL
T5 sequence (P42262 whole entry, canonical isoform): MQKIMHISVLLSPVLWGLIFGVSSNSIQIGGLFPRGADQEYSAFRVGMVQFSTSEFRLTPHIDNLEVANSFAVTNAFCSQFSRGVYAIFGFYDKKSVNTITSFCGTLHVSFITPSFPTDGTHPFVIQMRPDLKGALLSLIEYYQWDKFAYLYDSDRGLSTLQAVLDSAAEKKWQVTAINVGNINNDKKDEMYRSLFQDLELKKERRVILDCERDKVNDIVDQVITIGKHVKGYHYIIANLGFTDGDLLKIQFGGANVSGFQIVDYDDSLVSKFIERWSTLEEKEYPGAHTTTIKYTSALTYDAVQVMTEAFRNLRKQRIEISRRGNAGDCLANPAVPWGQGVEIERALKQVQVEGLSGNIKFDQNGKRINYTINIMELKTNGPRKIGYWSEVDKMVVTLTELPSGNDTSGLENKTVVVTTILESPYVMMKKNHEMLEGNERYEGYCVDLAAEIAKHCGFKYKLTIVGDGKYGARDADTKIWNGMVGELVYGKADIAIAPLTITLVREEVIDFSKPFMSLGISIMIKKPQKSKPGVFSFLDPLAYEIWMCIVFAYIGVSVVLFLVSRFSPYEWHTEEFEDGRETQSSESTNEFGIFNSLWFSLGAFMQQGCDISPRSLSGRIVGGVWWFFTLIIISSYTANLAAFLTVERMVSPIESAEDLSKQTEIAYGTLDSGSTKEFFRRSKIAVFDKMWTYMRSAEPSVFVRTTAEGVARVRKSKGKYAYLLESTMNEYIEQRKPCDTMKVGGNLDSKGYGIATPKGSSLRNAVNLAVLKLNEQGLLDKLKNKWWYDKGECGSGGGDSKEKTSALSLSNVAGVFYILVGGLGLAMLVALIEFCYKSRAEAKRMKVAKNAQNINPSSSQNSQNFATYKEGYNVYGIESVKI
T4 sequence (P42262 whole entry, canonical isoform): as above
T4 sequence (P42261 whole entry, canonical isoform): as the sequence (P42261 whole entry, canonical isoform) above

`NS(=O)(=O)c1cc2c(cc1Cl)NC(C1CC3C=CC1C3)NS2(=O)=O` (stereo not given) [CYCLOTHIAZIDE] gave a fold change (FC) (Glutamate receptor 1 [1]) of 103, an EC50 (Glutamate receptor 1 [2]) of 1 µM and a fold change (FC) (Glutamate receptor 1 [3]) of 22. It also gave a fold change (FC) (Glutamate receptor 3 [4]) of 69, a fold change (FC) [5] of 137 and a fold change (FC) [6] of 61. For the same compound, the EC50 [7] was 5.9 µM, the EC50 [8] was 6.6 µM and the EC50 [9] was greater than 76 µM. It also gave an EC50 [10] of 5 µM, an EC50 [11] greater than 91 µM and an EC50 (Glutamate receptor 1 [12]) of 19.8 µM. For the same compound, the EC50 (Glutamate receptor 2 [13]) was 2.24 µM, the EC50 (Glutamate receptor 2 [14]) was greater than 100 µM and the EC50 (Glutamate receptor 3 [15]) was 13.7 µM. For the same compound, the EC50 [16] was 3.91 µM, the EC50 (Glutamate receptor 1 [17]) was 2 µM and the EC50 (Glutamate receptor 1 [18]) was 10 µM. The fold change (FC) (Glutamate receptor 1 [19]) was 5.31, the fold change (FC) (Glutamate receptor 1 [20]) was 1.34 and the fold change (FC) (Glutamate receptor 3 [21]) was 3.59. The fold change (FC) (Glutamate receptor 3 [22]) was 5.59, the fold change (FC) [23] was 3.53 and the fold change (FC) [24] was 10.5. It also gave a fold change (FC) [25] of 19.9, a fold change (FC) [26] of 11.6 and a fold change (FC) [27] of 6.83. The fold change (FC) [28] was 7.18 and the fold change (FC) [29] was 171.
For `CNC(=O)N1N=C(c2ccc(N)cc2)c2cc3c(cc2CC1C)OCO3` (stereo not given) [GYKI-53655], the EC50 (Glutamate receptor 1 [30]) was 28 µM and the EC50 (Glutamate receptor 2 [31]) was 100 µM.
Work on `NCCCNCCCCNCCC(=O)NCCCCCNC(=O)[C@H](CC(N)=O)NC(=O)Cc1ccc(O)cc1O` [JORO SPIDER TOXIN 3] yielded an IC50 (Glutamate receptor 1 [32]) of 0.04 µM, an IC50 (Glutamate receptor 3 [33]) of 0.03 µM and an inhibition (Glutamate receptor 3 [34]) of 96%. The inhibition (Oocyte) was 82%.
